Each block holds one molecule with its values, some of them ahead of it.
Legend:
[1] = Hygroscopicity of solid DOPC; type: physicochemical
From the text: In addition, waxy DOPC can only be comminuted with difficulty and, like lyophilised DOPC, can only be weighed out with difficulty. This makes handling of this compound much more difficult.

[2] = stored under a protective gas at −20° C.; cited from earlier work
[3] = Storage stability of crystalline DOPC, residual content by HPLC; type: physicochemical; conditions: exclusion of air
Procedure: In order to determine the stability of crystalline DOPC, the substances are stored together with comparative samples at 25° C. and 60% relative humidity and at 40° C. and 75% relative humidity with exclusion of air. The residual content of DOPC is measured at periodic intervals and indicated compared with the initial value. Purity and content of DOPC are determined by HPLC. For the type I crystal modification, the following values were found: […]

[4] = 25° C./60% relative humidity, storage time 0 months
[5] = 25° C./60% relative humidity, storage time 3 months
[6] = 25° C./60% relative humidity, storage time 6 months
[7] = 25° C./60% relative humidity, storage time 9 months
[8] = 25° C./60% relative humidity, storage time 12 months
[9] = 25° C./60% relative humidity, storage time 18 months
[10] = 40° C./75% relative humidity, storage time 0 months
[11] = 40° C./75% relative humidity, storage time 3 months
[12] = 40° C./75% relative humidity, storage time 6 months
[13] = 40° C./75% relative humidity, storage time 9 months
[14] = 40° C./75% relative humidity, storage time 12 months

hygroscopicity [1]: improved hygroscopicity
SMILES: CCCCCCCC/C=C\CCCCCCCC(=O)OC[C@H](COP(=O)([O-])OCC[N+](C)(C)C)OC(=O)CCCCCCC/C=C\CCCCCCCC [Crystalline DOPC]

hygroscopicity [1]: extremely hygroscopic
SMILES: CCCCCCCC/C=C\CCCCCCCC(=O)OC[C@H](COP(=O)([O-])OCC[N+](C)(C)C)OC(=O)CCCCCCC/C=C\CCCCCCCC [amorphous DOPC, reference compound]

SMILES: CCCCCCCC/C=C\CCCCCCCC(=O)OC[C@H](COP(=O)([O-])OCC[N+](C)(C)C)OC(=O)CCCCCCC/C=C\CCCCCCCC [lyophilised DOPC]
guaranteed shelf life [2]: about 12 months

purity of DOPC (HPLC) compared with the initial value [3, 4]: 100.0 Area-% | residual content of DOPC compared with the initial value [3, 4]: 100.0 % by weight | purity of DOPC (HPLC) compared with the initial value [3, 5]: 100.0 Area-% | residual content of DOPC compared with the initial value [3, 5]: 100.9 % by weight | purity of DOPC (HPLC) compared with the initial value [3, 6]: 100.0 Area-% | residual content of DOPC compared with the initial value [3, 6]: 99.3 % by weight | purity of DOPC (HPLC) compared with the initial value [3, 7]: 100.0 Area-% | residual content of DOPC compared with the initial value [3, 7]: 100.8 % by weight | purity of DOPC (HPLC) compared with the initial value [3, 8]: 99.7 Area-% | residual content of DOPC compared with the initial value [3, 8]: 100.4 % by weight | purity of DOPC (HPLC) compared with the initial value [3, 9]: 99.8 Area-% | residual content of DOPC compared with the initial value [3, 9]: 100.6 % by weight | purity of DOPC (HPLC) compared with the initial value [3, 10]: 100.0 Area-% | residual content of DOPC compared with the initial value [3, 10]: 100.0 % by weight | purity of DOPC (HPLC) compared with the initial value [3, 11]: 99.9 Area-% | residual content of DOPC compared with the initial value [3, 11]: 100.0 % by weight | purity of DOPC (HPLC) compared with the initial value [3, 12]: 99.8 Area-% | residual content of DOPC compared with the initial value [3, 12]: 98.4 % by weight | purity of DOPC (HPLC) compared with the initial value [3, 13]: 99.8 Area-% | residual content of DOPC compared with the initial value [3, 13]: 99.8 % by weight | purity of DOPC (HPLC) compared with the initial value [3, 14]: 99.7 Area-% | residual content of DOPC compared with the initial value [3, 14]: 99.5 % by weight
SMILES: CCCCCCCC/C=C\CCCCCCCC(=O)OC[C@H](COP(=O)([O-])OCC[N+](C)(C)C)OC(=O)CCCCCCC/C=C\CCCCCCCC [type I crystalline (R)-DOPC, 1,2-dioleoyl-sn-glycero-3-phosphocholine]

— patent US8513446B2, “Stable crystal modifications of DOPC” (Merck Patent GmbH, priority 2008, dated 2013)
